Source: PMC9238271, “The quorum sensing peptide EntF* promotes colorectal cancer metastasis in mice: a new factor in the host-microbiome interaction” (BMC Biology, 2022)
“And” between values parts separate entries of the source, which are not always exact repeats. Equal values may be shown once.

Key:
[1] = test system: E-cadherin expression in Caco-2 cells; assay: Western blot of E-cadherin expression, Caco-2 cells; type: cell-based
Description: HCT-8, HT-29, and HT-116 cells were grown in DMEM medium supplied with 10% fetal bovine serum (FBS) and 1% penicillin-streptomycin. Caco-2 cells were grown in DMEM medium supplied with 10% FBS, 1% non-essential amino acid NEAA), and 1% penicillin-streptomycin. Cells were cultured at 37 °C and 5% CO2. As cells reached confluency, they were detached using 0.25% Trypsin-EDTA.
For Western blot analyses, HCT-8 (n = 15), HCT-116 (n = 12), Caco-2 (n = 6), and HT-29 (n = 12) cells were seeded in 6-well plates at a density of 1 × 10^6 cells/well. Twenty-four hours after seeding, all cell lines were treated with 1 μM EntF* or a placebo solution. HCT-8 cells were also tested for responsiveness to 1 μM EntF* synthetic alanine-derived analogs. For antagonist activity analysis, HCT-8 cells were treated with 1 μM Nef-M1 or 1 μM EntF*A1 alone or in combination with 500 nM EntF*. After 24 h, cells were detached from the surface and lysed in RIPA buffer (Thermo Scientific). Protein concentration was determined using the modified Lowry protein assay kit (Thermo Scientific), according to the manufacturer’s instructions. Protein samples were diluted to the same concentration (4 μg/μL) with water and diluted again 1:1 using 2x Laemmli buffer. After that, samples were boiled for 5 min at 95 °C to denature proteins and centrifuged for 5 min at 16,000g; supernatants were used for Western blot analyses. Equal amounts of total protein (20 μg/lane) were separated by SDS-PAGE on an Any kD^TM gel (Bio-Rad ) and then transferred to a PVDF membrane. Before incubation with antibodies, non-specific binding sites on the membranes were blocked using 5% skimmed milk solution (1 h). TBS buffer with 0.05% Tween 20 was used for all washing steps. Membranes were incubated overnight at 4 °C with an anti-E-cadherin primary antibody (1/1000 dilution). An HRP-conjugated anti-rabbit antibody (1/2000 dilution, 1 h incubation) was used for chemiluminescent detection. Membranes were incubated with the detection substrate for 5 min and signal detection was performed using the ChemiDoc EZ imager and Image Lab software (Bio-Rad). […]

[2] = test system: luciferase-transfected HCT-8/E11 cells injected into the cecal wall; assay: Orthotopic mouse model: macroscopic number of tumor nodules on the cecum; type: in vivo, female athymic nude mice (Swiss nu/nu)
Description: (§1) Six-week-old female athymic nude mice (Swiss nu/nu) were anesthetized, and a minimally invasive midline laparotomy was performed to localize the cecum. The cecum was then gently pulled out, and luciferase-transfected HCT-8/E11 cells (1 × 10^6 cells) in 20 μL serum-free DMEM medium with Matrigel (1:1) were injected into the cecal wall. Before implantation, cells were treated with EntF* (10^2 nM), Phr0662 (10^2 nM), vehicle (PBS), or TGFα positive control (0.1 μg mL^−1) solutions for 5 days. The cecum was then carefully placed back into the abdominal cavity and the surgical incision was closed with two layers of sutures with PDS 6-0. […] Once a week, mice were examined for tumor growth and metastases using bioluminescent imaging with the IVIS Lumina II (Perkin Elmer, Belgium) after i.p. injection with 200 μL luciferin (150 mg kg^−1). After 6 weeks, mice were euthanized using cervical dislocation, and the liver, diaphragm, lungs, cecum, duodenum, and peritoneum were macroscopically examined for the presence of tumor nodules. Liver and lung tissues were then fixed in formalin for 24 h and stored in 70% ethanol for maximum 3 days before embedding in paraffin. Next, a hematoxylin and eosin (H&E) staining was performed on 8 μm sections, and 3 sections per mouse were visualized using microscopy. Slides from tumor-bearing mice were analyzed by two blinded, independent investigators using the scoring system described in Additional file 5: Table S3. In case of differences, slides were scored by a third blinded, independent investigator for consensus.
The Kolmogorov-Smirnov test was used to assess if data obtained were normally distributed. For sample size n < 10, non-parametric tests (Mann-Whitney U test) were performed directly. Slope comparison was based on linear regression analysis. Bootstrapped medians and Hedges G-values were used to calculate the effect size when sample sizes were different between the groups. Cohen’s d values were calculated as a measure of the effect size when similar standard deviations for both groups were found, and sample sizes were the same.

[3] = test system: tumor nodules in the liver; assay: Orthotopic mouse model: histopathological evaluation of liver; type: in vivo, female athymic nude mice (Swiss nu/nu)
Description: as §1

[4] = test system: tumor nodules in the lungs; assay: Orthotopic mouse model: histopathological evaluation of lungs; type: in vivo, female athymic nude mice (Swiss nu/nu)
Description: as §1

[5] = 6 weeks of treatment, H&E histopathological score, n = 30 EntF*, n = 8 PBS

**Q.** How did the “effect on E-cadherin expression in Caco-2 cells” value ([1]; 1 μM EntF* or CXCL12, 24 h, n = 6) turn out when `CC(C)C[C@@H]1NC(=O)[C@H](CO)NC(=O)[C@H](Cc2ccccc2)NC(=O)[C@H](C(C)C)NC(=O)[C@@H](NC(=O)[C@H](CCC(=O)O)NC(=O)[C@@H](NC(=O)[C@H](CC(C)C)NC(=O)[C@H](CC(N)=O)NC(=O)[C@@H](N)CO)C(C)C)CSSC[C@@H](C(=O)N[C@@H](CC(N)=O)C(=O)O)NC(=O)[C@H](CCCCN)NC(=O)[C@H](CCCCN)NC(=O)[C@H](Cc2ccccc2)NC1=O` (single isomer, unassigned) [EntF*] was run?
**A.** statistically significant reduction

**Q.** What about the “Relative E-cadherin in different cell lines, Average” value ([1]; CaCo-2 cells, average of n = 6) of the same molecule?
**A.** 40.1

**Q.** What about the “effect size class by Hedges' G, number of nodules in the cecum” value ([2]; after a 6-week treatment, compared to the placebo group) of the same molecule?
**A.** medium

**Q.** What about the “Mean amount of nodules” value ([2]; macroscopic evaluation caecum, mean of the group) of the same molecule?
**A.** 11.5

**Q.** What about the “number of tumor nodules in the liver compared to the vehicle” value [3, 5] of the same molecule?
**A.** significantly higher number of tumor nodules

**Q.** And the “Histology scoring LIVER, conclusion per group” value ([3]; per group)?
**A.** 1

**Q.** And the “number of tumor nodules in the lungs compared to the vehicle” value [4, 5]?
**A.** significantly higher number of tumor nodules

**Q.** And the “Histology scoring LUNGS, Scoring person 1 (ND)” value ([4]; individual samples, one line per sample)?
**A.** 3 and 4 and 0 and 1

**Q.** And the “Histology scoring LUNGS, conclusion per group” value ([4]; per group)?
**A.** 1
